Data from US20240299385A1 (ReWind Therapeutics NV, priority 2021, published 2024).
pIC50: −log10 of the molar value.

Molecular target: T1, human GPR17 receptor (Homo sapiens, UniProt Q13304)
T1 construct: host or cells: HEK-293
Experiment: Calcium mobilization functional assay (Fluo-8, FLIPR TETRA) in HEK-293 hGPR17 (Gα-q assay)
Format: cell-based
Settings: antagonism of MDL29,951 (~EC80) induced Ca2+ signal; cell line (HEK-293 hGPR17 or HEK-293 Suchi5 hGPR17) not given
Method: HEK-293 cells stably expressing the human GPR17 receptor (HEK-293 hGPR17) developed by Axxam (Bresso, Milan, Italy) were cultured at 37° C. in a humidified atmosphere of 5% CO2. Cells were grown in EMEM supplemented with FBS (10%), Penicillin/Streptomycin (1%), Ultraglutamine I (2 mM), puromycin (0.6 μg/mL), G418 (0.4 mg/mL), zeocin (50 μg/mL). This cell line was used to test the compound antagonistic activity by monitoring the Gα-q based signaling. Signaling via Gα-q leads to mobilization of calcium from internal stores. Elevated intracellular calcium levels can then be measured with calcium-sensitive fluorescent dyes (e.g., Fluo 8-No Wash Dye).
GPR17 activation leads to both an increase in intracellular calcium (via Gα-q) and a decrease in cAMP levels (via Gα-i), implicating that both of these pathways play a role for in vivo function.
Experiments were performed using the below cell lines, as described in part 1: • HEK-293 hGPR17 (used to study the compounds acting via Gα-q pathway) • HEK-293 Suchi5 hGPR17 (used to study the compounds acting via Gα-i pathway, where the Gα-i signaling is switched to a Gα-q signaling thanks to the Gα-i/q chimera Suchi5)
GPR17 activation was able to induce an endoplasmic reticulum calcium (Ca^2+) store release in cytosol which could be measured using the fluorescent Ca^2+ sensitive dye Fluo-8 No Wash Dye as readout.
HEK-293 hGPR17 and HEK-293 Suchi5 hGPR17 were seeded at a density of 15,000 cells/well into poly-D-lysine coated black 384-well plates with clear bottom in complete medium. Cells were incubated overnight at 37° C. in a humidified atmosphere of 5% CO2. Twenty-four hours after seeding, the culture medium was carefully removed manually and the cells were loaded for 60 minutes at room temperature with the Ca^2+ sensitive Fluo-8 No Wash Dye, according to manufacturer's instructions. Cells were then assayed using a fluorometric imaging plate reader (FLIPR^TETRA). Fluorescence (excitation: 470-495 nm; emission: 515-575 nm) was recorded during the experiment. […] After twenty minutes, a second injection of MDL29,951 at ˜EC80 (500 nM for HEK-293 hGPR17 and 2 nM for HEK-293 Suchi5 hGPR17) in assay buffer was performed at the FLIPR^TETRA and the signal of the emitted fluorescence was recorded for additional 2 minutes. All the compound injections and incubations were performed in duplicate. For data quality and data analysis the Screener® 16.0.6 (Genedata) software was used.

T1 sequence (Q13304 whole entry): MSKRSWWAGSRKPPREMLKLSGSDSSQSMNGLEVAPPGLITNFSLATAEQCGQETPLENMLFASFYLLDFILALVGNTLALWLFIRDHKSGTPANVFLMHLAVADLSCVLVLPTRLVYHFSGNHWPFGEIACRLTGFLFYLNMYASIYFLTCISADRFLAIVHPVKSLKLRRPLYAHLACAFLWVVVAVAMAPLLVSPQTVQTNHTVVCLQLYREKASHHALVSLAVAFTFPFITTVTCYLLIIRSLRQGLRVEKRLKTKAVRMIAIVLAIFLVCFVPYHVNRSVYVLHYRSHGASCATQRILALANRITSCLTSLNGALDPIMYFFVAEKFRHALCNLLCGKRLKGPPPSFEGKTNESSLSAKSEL

`CC(c1ccccn1)c1cc(S(=O)(=O)Nc2ccc(C#N)cc2F)c[nH]1` (stereo not drawn) gave a pIC50 of 4.30 to 5.30.
Compound `Cc1[nH]c(-c2ccccc2)cc1S(=O)(=O)Nc1ccc(C#N)cc1F` [Cpd 001, N-(4-cyano-2-fluorophenyl)-2-methyl-5-phenyl-1H-pyrrole-3-sulfonamide] has a pIC50 of 5.30 to 6.30.
With `N#Cc1ccc(NS(=O)(=O)c2c[nH]c(-c3ccccc3)c2)c(F)c1` [Cpd 002, N-(4-cyano-2-fluorophenyl)-5-phenyl-1H-pyrrole-3-sulfonamide] the pIC50 was > 6.30.
In the case of `O=S(=O)(Nc1cc(F)c(Br)cc1F)c1c[nH]c(-c2ccccc2)c1` [Cpd 003, N-(4-bromo-2,5-difluoro-phenyl)-5-phenyl-1H-pyrrole-3-sulfonamide], the pIC50 was > 6.30.
`N#Cc1ccc(NS(=O)(=O)c2c[nH]c(-c3cccc(F)c3)c2)c(F)c1` [Cpd 004, N-(4-cyano-2-fluoro-phenyl)-5-(3-fluorophenyl)-1H-pyrrole-3-sulfonamide] was tested, and the pIC50 was > 6.30.
`Cc1cccc(-c2cc(S(=O)(=O)Nc3ccc(C#N)cc3F)c[nH]2)c1` [Cpd 005, N-(4-cyano-2-fluoro-phenyl)-5-(m-tolyl)-1H-pyrrole-3-sulfonamide] was tested, and the pIC50 was > 6.30.
In the case of `N#Cc1ccc(NS(=O)(=O)c2c[nH]c(-c3cccc(Cl)c3)c2)c(F)c1` [Cpd 006, 5-(3-chlorophenyl)-N-(4-cyano-2-fluoro-phenyl)-1H-pyrrole-3-sulfonamide], the pIC50 was > 6.30.
In the case of `N#Cc1ccc(NS(=O)(=O)c2c[nH]c(-c3ccc(F)cc3)c2)c(F)c1` [Cpd 007, N-(4-cyano-2-fluoro-phenyl)-5-(4-fluorophenyl)-1H-pyrrole-3-sulfonamide], the pIC50 was > 6.30.
`Cc1ccc(-c2cc(S(=O)(=O)Nc3ccc(C#N)cc3F)c[nH]2)cc1` [Cpd 008, N-(4-cyano-2-fluoro-phenyl)-5-(p-tolyl)-1H-pyrrole-3-sulfonamide] gave a pIC50 of 5.30 to 6.30.
In the case of `N#Cc1ccc(NS(=O)(=O)c2c[nH]cc2-c2ccccc2)c(F)c1` [Cpd 009, N-(4-cyano-2-fluorophenyl)-4-phenyl-1H-pyrrole-3-sulfonamide], the pIC50 was 5.30 to 6.30.
With `COc1cccc(-c2cc(S(=O)(=O)Nc3ccc(C#N)cc3F)c[nH]2)c1` [Cpd 010, N-(4-cyano-2-fluoro-phenyl)-5-(3-methoxyphenyl)-1H-pyrrole-3-sulfonamide] the pIC50 was > 6.30.
`N#Cc1ccc(NS(=O)(=O)c2c[nH]c(-c3ccc(Cl)cc3)c2)c(F)c1` [Cpd 011, 5-(4-chlorophenyl)-N-(4-cyano-2-fluoro-phenyl)-1H-pyrrole-3-sulfonamide] showed a pIC50 of 5.30 to 6.30.
In the case of `COc1ccc(-c2cc(S(=O)(=O)Nc3ccc(C#N)cc3F)c[nH]2)cc1` [Cpd 012, N-(4-cyano-2-fluoro-phenyl)-5-(4-methoxyphenyl)-1H-pyrrole-3-sulfonamide], the pIC50 was 4.30 to 5.30.
Compound `N#Cc1ccc(NS(=O)(=O)c2c[nH]c(C(=O)c3ccccc3)c2)c(F)c1` [Cpd 013, 5-benzoyl-N-(4-cyano-2-fluoro-phenyl)-1H-pyrrole-3-sulfonamide] has a pIC50 of 4.30 to 5.30.
With `N#Cc1ccc(NS(=O)(=O)c2c[nH]c(-c3ccccc3F)c2)c(F)c1` [Cpd 014, N-(4-cyano-2-fluorophenyl)-5-(2-fluorophenyl)-1H-pyrrole-3-sulfonamide] the pIC50 was > 6.30.
In the case of `Cc1ccccc1-c1cc(S(=O)(=O)Nc2ccc(C#N)cc2F)c[nH]1` [Cpd 015, N-(4-cyano-2-fluoro-phenyl)-5-(o-tolyl)-1H-pyrrole-3-sulfonamide], the pIC50 was > 6.30.
In the case of `N#Cc1ccc(NS(=O)(=O)c2c[nH]c(-c3ccccc3Cl)c2)c(F)c1` [Cpd 016, 5-(2-chlorophenyl)-N-(4-cyano-2-fluoro-phenyl)-1H-pyrrole-3-sulfonamide], the pIC50 was > 6.30.
`COc1ccccc1-c1cc(S(=O)(=O)Nc2ccc(C#N)cc2F)c[nH]1` [Cpd 017, N-(4-cyano-2-fluoro-phenyl)-5-(2-methoxyphenyl)-1H-pyrrole-3-sulfonamide] was tested, and the pIC50 was > 6.30.
With `N#Cc1ccc(NS(=O)(=O)c2c[nH]c(C3CCCC3)c2)c(F)c1` [Cpd 018, N-(4-cyano-2-fluorophenyl)-5-cyclopentyl-1H-pyrrole-3-sulfonamide] the pIC50 was 5.30 to 6.30.
Work on `N#Cc1ccc(NS(=O)(=O)c2c[nH]c(Cc3ccccc3)c2)c(F)c1` [Cpd 019, 5-benzyl-N-(4-cyano-2-fluoro-phenyl)-1H-pyrrole-3-sulfonamide] yielded a pIC50 of 5.30 to 6.30.
`N#Cc1ccc(NS(=O)(=O)c2cc(-c3ccccc3)[nH]c2F)c(F)c1` [Cpd 020, N-(4-cyano-2-fluorophenyl)-2-fluoro-5-phenyl-1H-pyrrole-3-sulfonamide] showed a pIC50 of 5.30 to 6.30.
With `N#Cc1ccc(NS(=O)(=O)c2c[nH]c(-c3cccc(C(F)(F)F)c3)c2)c(F)c1` [Cpd 021, N-(4-cyano-2-fluoro-phenyl)-5-[3-(trifluoromethyl)phenyl]-1H-pyrrole-3-sulfonamide] the pIC50 was 5.30 to 6.30.
`CC(C)c1cccc(-c2cc(S(=O)(=O)Nc3ccc(C#N)cc3F)c[nH]2)c1` [Cpd 022, N-(4-cyano-2-fluoro-phenyl)-5-(3-isopropylphenyl)-1H-pyrrole-3-sulfonamide] showed a pIC50 of 4.30 to 5.30.
With `N#Cc1ccc(NS(=O)(=O)c2c[nH]c(-c3ccccc3)c2F)c(F)c1` [Cpd 023, N-(4-cyano-2-fluorophenyl)-4-fluoro-5-phenyl-1H-pyrrole-3-sulfonamide] the pIC50 was > 6.30.
`N#Cc1ccc(NS(=O)(=O)c2c[nH]c(-c3ccncc3)c2)c(F)c1` [Cpd 024, N-(4-cyano-2-fluoro-phenyl)-5-(4-pyridyl)-1H-pyrrole-3-sulfonamide] gave a pIC50 of 4.30 to 5.30.
For `N#Cc1cccc(-c2cc(S(=O)(=O)Nc3ccc(C#N)cc3F)c[nH]2)c1` [Cpd 025, N-(4-cyano-2-fluoro-phenyl)-5-(3-cyanophenyl)-1H-pyrrole-3-sulfonamide], the pIC50 was > 6.30.
With `N#Cc1ccc(NS(=O)(=O)c2c[nH]c(-c3ccccn3)c2)c(F)c1` [Cpd 026, N-(4-cyano-2-fluoro-phenyl)-5-(2-pyridyl)-1H-pyrrole-3-sulfonamide] the pIC50 was > 6.30.
With `N#Cc1ccc(NS(=O)(=O)c2c[nH]c(-c3cccnc3)c2)c(F)c1` [Cpd 027, N-(4-cyano-2-fluoro-phenyl)-5-(3-pyridyl)-1H-pyrrole-3-sulfonamide] the pIC50 was 5.30 to 6.30.
With `N#Cc1cc(F)c(NS(=O)(=O)c2c[nH]c(-c3ccccc3)c2)cc1F` [Cpd 028, N-(4-cyano-2,5-difluoro-phenyl)-5-phenyl-1H-pyrrole-3-sulfonamide] the pIC50 was > 6.30.
`Cc1cc(C#N)ccc1NS(=O)(=O)c1c[nH]c(-c2ccccc2)c1` [Cpd 029, N-(4-cyano-2-methyl-phenyl)-5-phenyl-1H-pyrrole-3-sulfonamide] showed a pIC50 of 4.30 to 5.30.
In the case of `COc1cc(C#N)ccc1NS(=O)(=O)c1c[nH]c(-c2ccccc2)c1` [Cpd 030, N-(4-cyano-2-methoxy-phenyl)-5-phenyl-1H-pyrrole-3-sulfonamide], the pIC50 was 5.30 to 6.30.
`Cc1cc(NS(=O)(=O)c2c[nH]c(-c3ccccc3)c2)ccc1C#N` [Cpd 031, N-(4-cyano-3-methyl-phenyl)-5-phenyl-1H-pyrrole-3-sulfonamide] gave a pIC50 of 5.30 to 6.30.
For `COc1ccc(NS(=O)(=O)c2c[nH]c(-c3ccccc3)c2)c(F)c1` [Cpd 032, N-(2-fluoro-4-methoxy-phenyl)-5-phenyl-1H-pyrrole-3-sulfonamide], the pIC50 was 4.30 to 5.30.
With `Cc1c(S(=O)(=O)Nc2ccc(C#N)cc2F)c[nH]c1-c1ccccc1` [Cpd 033, N-(4-cyano-2-fluoro-phenyl)-4-methyl-5-phenyl-1H-pyrrole-3-sulfonamide] the pIC50 was > 6.30.
For `N#Cc1ccc(NS(=O)(=O)c2c[nH]cc2Cc2ccccc2)c(F)c1` [Cpd 034, 4-benzyl-N-(4-cyano-2-fluorophenyl)-1H-pyrrole-3-sulfonamide], the pIC50 was > 6.30.
For `N#Cc1ccc(NS(=O)(=O)c2c[nH]c(-c3ccccc3)c2)cc1F` [Cpd 035, N-(4-cyano-3-fluoro-phenyl)-5-phenyl-1H-pyrrole-3-sulfonamide], the pIC50 was > 6.30.
`N#Cc1ccc(NS(=O)(=O)c2c[nH]c(-c3ccccc3)c2)c(Cl)c1` [Cpd 036, N-(2-chloro-4-cyano-phenyl)-5-phenyl-1H-pyrrole-3-sulfonamide] was tested, and the pIC50 was 5.30 to 6.30.
With `N#Cc1ccc(NS(=O)(=O)c2c[nH]c(-c3ccccc3)c2)nc1` [Cpd 037, N-(5-cyano-2-pyridyl)-5-phenyl-1H-pyrrole-3-sulfonamide] the pIC50 was 4.30 to 5.30.
For `N#Cc1ccc(NS(=O)(=O)c2c[nH]c(-c3ccc(F)cc3F)c2)c(F)c1` [Cpd 038, N-(4-cyano-2-fluoro-phenyl)-5-(2,4-difluorophenyl)-1H-pyrrole-3-sulfonamide], the pIC50 was > 6.30.
